Measured values reported in patent publication US20230173029A1, “TREATMENT OF CARDIAC REMODELLING” (UNIVERSITETET I OSLO, priority 2020, published 2023).

Test system: SMAD2
Test: Western blot of nuclear phosphorylated SMAD2 in left ventricle tissue
Format: in vivo, rat
Conditions: HT Dahl/SS rats, 50 or 100 ng/kg/day s.c. (pooled), FIG. 2E
Experimental: A total of 29 adult Dahl salt-sensitive (Dahl/SS) male rats with an initial weight of 150 to 200 g were included in the study. Rats were purchased from Charles River Laboratories (USA) and housed in a room with a 12/12-hour light cycle, a temperature of 21° C., and a humidity of 55%. Rats were maintained on a normal salt diet up to seven weeks of age. Twenty-two Dahl/SS were then randomly switched to a high salt diet for 6 weeks to induce hypertension, whilst 7 rats were kept normotensive (NT) on normal salt diet. Drinking water and food was provided ad libitum.
After 2 weeks of high salt diet, 15 hypertensive (HT) rats were started on treatment with proANP31-67. […]
Enriched nuclear protein fraction from left ventricle tissue was isolated using Compartment Protein Extraction Kit (Merck Millipore, Cat. #2145), according to the manufacturer's specifications. Protein concentration was measured by BCA assay kit (Thermo Fisher Scientific, Cat. #23225). […] Membranes were analysed with rabbit anti-SMAD2/3 (1:1000, Cell Signaling Technology, Cat. #8685) and rabbit anti-phospho-SMAD2 (Ser465/467) (1:500, Cell Signaling Technology, Cat. #3108). The membranes were developed using the ECL system (Pierce Protein Research Products) and ChemiDoc XRS (Bio-Rad), and quantified using Image Lab™ software (version 6.0.1, Bio-Rad).

## proANP31-67: Human proANP31-67, linear peptide fragment of proANP consisting of SEQ ID NO: 1; also known as vessel dilator, VSDL (EVVPPQVLSEPNEEAGAALSPLPEVPPWTGEVSPAQR; listed as Homo sapiens)
  SMAD2 phosphorylation (nuclear) compared to untreated HT rats: significantly lower
